The values below come from ChEMBL document CHEMBL1201862, “PubChem BioAssay data set” (2004).

Common to all, as to assay: growth of human tumour cells (NCI), 48 h
Assay [1] deals with DLD-1.
In assay [2] the test system is KM-20L2.
The subject of assay [3] is M19-MEL.
In assay [4] the test system is XF498.
Assay [5] relates to LXFL 529.
Assay [6] relates to SNB-78.
Assay [7] concerns DMS-114.
In assay [8] the test system is RXF 631.
Assay [9] relates to HOP-18.

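Method: 48-hour compound exposure of cells in 96-well plates, five concentrations, linear interpolation of endpoints. GI50: concentration for 50% inhibition of growth.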 Activity calls are given as the source filed them. No stated cut-off is given here; in the data, active = GI50 up to about 1.1 µM and inactive = higher.

As to `CC(=O)OC1COC(N2CCc3cc([N+](=O)[O-])ccc32)C(OC(C)=O)C1OC(C)=O` (configuration not stated), the GI50 in assay [1] was > 100 µM (inactive); in assay [2], > 100 µM (inactive); in assay [3] it was > 100 µM (inactive); in assay [4], 50.4 µM (inactive); in assay [5] it was > 100 µM (inactive); in assay [6], > 100 µM (inactive). For the same compound, in [7], the GI50 is > 100 µM (inactive).
Turning to `CC(=O)OC1(C#N)CC2OC1C1C2N1C(=O)c1ccccc1` (configuration not stated), the GI50 in assay [1], in assay [2], in [3], in assay [4], in assay [5] and in assay [6] was > 100 µM (inactive) in each case. In addition, the GI50 in assay [7] and in [8] was > 100 µM (inactive) each time.
Regarding `CC(C(=O)N1C(=O)N(C(=O)C(C)C(O)c2ccccc2)C2CCCCC21)C(O)c1ccccc1` (configuration not stated), the GI50 in assay [2] was > 100 µM (inactive); in assay [3], 83.8 µM (inactive); in [4], 79.6 µM (inactive); in assay [5], 44.1 µM (inactive); in assay [6], > 100 µM (inactive).
As for `N#CC(C(=O)CCC(=O)Nc1cccc(Cl)c1)c1ccccc1` (configuration not stated), the GI50 in assay [1], in assay [2], in [3], in assay [9], in assay [5] and in assay [6] was > 100 µM (inactive) each time. In addition, the GI50 in assay [7] and in [8] was > 100 µM (inactive) throughout.
Turning to `CCCCN[C@H]1C2C3CC4C5CC(C42)C1(C)C53` (some centres not stated), the GI50 in assay [1], in [2], in assay [3], in [9], in assay [5] and in assay [6] was > 100 µM (inactive) each time. Also, in [7], the GI50 is > 100 µM (inactive).
Regarding `Cc1cc(NCCCCCCCNc2cc(C)nc3cc(N)ccc23)c2ccc(N)cc2n1`, the GI50 in assay [1] is 28.8 µM (inactive); in assay [2] it was 34.2 µM (inactive); in assay [3], 32.2 µM (inactive); in assay [4], 17.2 µM (inactive); in assay [5] it was 26.5 µM (inactive); in [6], 40.3 µM (inactive). Also, the GI50 in assay [7] was 1.57 µM (inactive).
In the case of `Cn1ncc2c(c1=O)Nc1ccccc1S2(=O)=O`, the GI50 in assay [1] is > 100 µM (inactive); in assay [2] it was > 100 µM (inactive); in assay [3] it was > 100 µM (inactive); in [9] it was > 100 µM (inactive); in assay [5], 80.4 µM (inactive); in assay [6], > 100 µM (inactive). The GI50 in assay [7] was 22 µM (inactive).
Turning to `COC(=O)CCC(NC(=S)N/N=C(\C)c1ccc[nH]1)C(=O)OC` (configuration not stated), the GI50 in assay [1], in assay [2], in assay [3], in [9], in [4] and in assay [5] was > 100 µM (inactive) each time. Moreover, the GI50 in assay [6] and in assay [7] was > 100 µM (inactive) throughout.
For the compound `O=C1C(c2ccc(Br)cc2)=[N+]([O-])c2ccccc21`, the GI50 in assay [1] is 8.51 µM (inactive); in assay [2], 20.7 µM (inactive); in assay [3], 9.62 µM (inactive); in [9], 11.9 µM (inactive); in assay [4], 17.5 µM (inactive); in assay [5], 5.16 µM (inactive). The GI50 in [7] is 3.94 µM (inactive).
For the compound `NC(=S)N1N=C2c3ccccc3CC[C@H]2[C@@H]1c1ccc(Cl)cc1`, the GI50 is 31.7 µM (inactive) in assay [1]; 29.8 µM (inactive) in assay [2]; 30.6 µM (inactive) in assay [3]; 18.6 µM (inactive) in assay [9]; 26.4 µM (inactive) in assay [4]; 21.2 µM (inactive) in [5]. Moreover, the GI50 in [6] is 87.3 µM (inactive); in [7] it was 23.9 µM (inactive).
In the case of `CC(=O)/C=C1/c2ccccc2N(C(C)=O)C1O` (configuration not stated), the GI50 in [1], in assay [2], in assay [3], in assay [9], in assay [5] and in [6] was > 100 µM (inactive) throughout. Also, in [7], the GI50 is > 100 µM (inactive).
On to `O=C1NC(=S)NC(=O)C1=Cc1cc2c(cc1[N+](=O)[O-])OCO2`, for which the GI50 in assay [1] was 67.3 µM (inactive); in assay [2] it was > 100 µM (inactive); in [3], > 100 µM (inactive); in assay [9], > 100 µM (inactive); in assay [6], > 100 µM (inactive); in assay [7], 36.8 µM (inactive). In addition, the GI50 in assay [8] is 97.3 µM (inactive).
For `Cc1cc(C)c(N)c(C)c1N`, the GI50 in [1], in [2], in assay [3], in assay [9], in assay [5] and in assay [6] was > 100 µM (inactive) in each case. Further, the GI50 in assay [7] was > 100 µM (inactive).
Turning to `COc1ccc(CCN2CCC(C#N)(c3ccc(OC)c(OC)c3)CC2)cc1OC`, the GI50 is > 100 µM (inactive) in assay [1]; > 100 µM (inactive) in assay [2]; > 100 µM (inactive) in assay [3]; > 100 µM (inactive) in assay [9]; 50.2 µM (inactive) in [4]; > 100 µM (inactive) in [5]. The GI50 in assay [7] was 60.4 µM (inactive).
In the case of `C=CCN(N=O)C(=O)NCCCCC(NC(C)=O)C(=O)NCc1ccccc1` (configuration not stated), the GI50 in assay [2] is > 100 µM (inactive); in assay [3], > 100 µM (inactive); in assay [9] it was 80.7 µM (inactive); in [4], > 100 µM (inactive); in assay [5] it was > 100 µM (inactive); in assay [7], > 100 µM (inactive). In [8], the GI50 was > 100 µM (inactive).
Consider `C=C(CN(C)C)C(=O)c1cc(C)ccc1C`, for which the GI50 in assay [1] is 2.28 µM (inactive); in [2] it was 23 µM (inactive); in assay [3], 4.81 µM (inactive); in assay [9] it was 4.13 µM (inactive); in assay [4], 17.9 µM (inactive); in [5], 1.62 µM (inactive). In addition, the GI50 in assay [6] was 26.9 µM (inactive); in assay [7], 5.02 µM (inactive).
Take `CNC(=S)OCCC(C)CCCC(C)C` (configuration not stated): the GI50 in assay [1] is 15.5 µM (inactive); in assay [2], 16.3 µM (inactive); in assay [3] it was 19.3 µM (inactive); in [9] it was 15.3 µM (inactive); in assay [4] it was 17 µM (inactive); in assay [5], 15.8 µM (inactive). Also, in assay [6], the GI50 is 18.8 µM (inactive).
As for `O=C1CCC(=O)N1Sc1ccccc1`, the GI50 in assay [1], in assay [2], in assay [3], in assay [6], in assay [7] and in assay [8] was > 100 µM (inactive) in each case.
For `COc1ccc(C2=C(Cl)c3cc(OC)c(OC)cc3C2OC)cc1OC` (configuration not stated), the GI50 was 17.9 µM (inactive) in [1]; > 100 µM (inactive) in assay [2]; > 100 µM (inactive) in assay [3]; > 100 µM (inactive) in [9]; > 100 µM (inactive) in assay [4]; 52.7 µM (inactive) in [5]. In addition, the GI50 is > 100 µM (inactive) in [6] and 14.2 µM (inactive) in assay [7].
`Nc1nc2c(ncn2C2OC(CO)C(O)C2N)c(=O)[nH]1` (configuration not stated): the GI50 in assay [1], in assay [3], in assay [4], in assay [5], in [6] and in [7] was > 100 µM (inactive) throughout. Further, in [8], the GI50 was 79.6 µM (inactive).
Turning to `O=C(/C(=C\c1ccccc1)CN1CCOCC1)c1ccc(Br)cc1`, the GI50 in assay [1] is 1.51 µM (inactive); in assay [2] it was 2.65 µM (inactive); in [3] it was 1.73 µM (inactive); in [9], 1.81 µM (inactive); in [4], 4.89 µM (inactive); in [5] it was 1.28 µM (inactive). For the same compound, the GI50 in assay [6] was 5.61 µM (inactive); in assay [7] it was 1.78 µM (inactive).
Consider `c1ccc2c(c1)n1nnnc1c1nnnn21`, for which the GI50 in [1] was > 100 µM (inactive); in [2], 93.8 µM (inactive); in assay [3] it was > 100 µM (inactive); in [4], > 100 µM (inactive); in assay [5], > 100 µM (inactive); in [6] it was 53.6 µM (inactive). For the same compound, the GI50 in assay [7] is 83.4 µM (inactive); in assay [8], > 100 µM (inactive).
As for `Cn1cc(C(=O)NCCC(=N)N)cc1NC(=O)C1=[N+](C)C=C(NC(=O)c2cccc(C(=O)NC3=CC(C(=O)Nc4cc(C(=O)NCCC(=N)N)cn4C)=[N+](C)C3)c2)C1`, the GI50 in assay [1], in assay [2], in [3], in assay [9], in assay [4] and in assay [5] was > 100 µM (inactive) in each case. The GI50 in [7] was 70.6 µM (inactive).
As to `NCCCNc1ccc2c3c(nn2CCNCCO)-c2c(O)ccc(O)c2C(=O)c13`, the GI50 was 4.08 µM (inactive) in assay [1]; 2.89 µM (inactive) in [2]; 1.5 µM (inactive) in [3]; 2.32 µM (inactive) in [9]; 0.125 µM (active) in [4]; 1.42 µM (inactive) in assay [6]. Also, the GI50 in assay [7] was 0.561 µM (active).
For `CC(C)c1cccc(C(C)C)c1NC(=O)C(=O)CC(=O)CC(c1ccccc1)c1c(O)oc2ccccc2c1=O` (configuration not stated), the GI50 in [1], in assay [2] and in assay [7] was > 100 µM (inactive) throughout.
Turning to `NC(=O)c1cc(N2CC2)c([N+](=O)[O-])cc1[N+](=O)[O-]` [TRETAZICAR], the GI50 in [2], in assay [3], in assay [5], in assay [6], in [7] and in assay [8] was > 100 µM (inactive) each time.
